Test results: patent US6562756B1, “Herbicidal compositions” (Nissan Chemical Industries, Ltd., priority 1999, dated 2003)

Tests used:
Format in all cases: in vivo
maize = experiment: Test on phytotoxicity to maize sown at a shallow sowing depth (soil treatment, pot test); settings: for Fresh weight ratio with respect to untreated plants: maize sown at 1 cm depth, 17 days after application; for phytotoxicities to maize sown at a shallow sowing depth caused by Compound (A1), (A2), (A3) or (A4): effect of the safener: summary in words of Table 1
Experimental: Cylindrical pots having an inner diameter of about 11 cm and a depth of 10 cm were charged with sterilized upland soil. In each pot, three seeds of maize were separately seeded at a sowing depth of 1 cm. On the day of seeding, wettable powder appropriately formulated according to the above Formulation Examples was diluted with water and then applied with a small type sprayer at a spray volume of 10 liter/are. Seventeen days after the application, the fresh weight of aerial parts of each plant was determined and then compared with those of untreated plants.

weeds = experiment: Test on herbicidal effects by soil treatment: summary over the weeds; settings: summary in words of Table 2
Experimental: (§1) Plastic cases having a size of 30 cm (length), 30 cm (width) and 10 cm (depth) were charged with sterilized upland soil. In each plastic case, seeds of velvetleaf (Abutilon theophrasti), common lambsquarters (Chenopodium album), redroot pigweed (Amaranthus viridis) and common ragweed (Ambrosia artemisiaefolia) were seeded, and covered with soil of 0.5 cm thickness. On the day of seeding, wettable powder appropriately formulated according to the above Formulation Examples was diluted with water and then applied with a small type sprayer at a spray volume of 10 liter/are. Four weeks after the application, the fresh weight of aerial parts of each weed was determined and then compared with those of untreated weed.

[1] = system: common lambsquarters (Chenopodium album); experiment: Test on herbicidal effects by soil treatment: common lambsquarters; settings: four weeks after application
Experimental: as §1

[2] = system: common ragweed (Ambrosia artemisiaefolia); experiment: Test on herbicidal effects by soil treatment: common ragweed; settings: four weeks after application
Experimental: as §1

[3] = system: redroot pigweed (Amaranthus viridis); experiment: Test on herbicidal effects by soil treatment: redroot pigweed; settings: four weeks after application
Experimental: as §1

[4] = system: velvetleaf (Abutilon theophrasti); experiment: Test on herbicidal effects by soil treatment: velvetleaf; settings: four weeks after application
Experimental: as §1

SMILES	Fresh weight ratio with respect to untreated plants (maize; 40 g/ha) [%]	Fresh weight ratio with respect to untreated plants (maize; 80 g/ha) [%]	herbicidal activities in the presence of Compound (B), (C), (D) or (E) (weeds)	Fresh weight ratio with respect to untreated weeds, C.al ([1]; 5 g/ha) [%]	Fresh weight ratio with respect to untreated weeds, C.al ([1]; 10 g/ha) [%]	Fresh weight ratio with respect to untreated weeds, A.ar ([2]; 5 g/ha) [%]	Fresh weight ratio with respect to untreated weeds, A.ar ([2]; 10 g/ha) [%]	Fresh weight ratio with respect to untreated weeds, A.vi ([3]; 5 g/ha) [%]	Fresh weight ratio with respect to untreated weeds, A.vi ([3]; 10 g/ha) [%]	Fresh weight ratio with respect to untreated weeds, A.th ([4]; 5 g/ha) [%]	Fresh weight ratio with respect to untreated weeds, A.th ([4]; 10 g/ha) [%]	phytotoxicities to maize sown at a shallow sowing depth caused by Compound (A1), (A2), (A3) or (A4): effect of the safener (maize)
CCS(=O)(=O)Nc1cc(-n2c(=O)cc(C(F)(F)F)n(C)c2=O)c(F)cc1Cl [Compound (A1)]	70	55	not decreased	13	0	31	7	5	0	26	2	
Cn1c(C(F)(F)F)cc(=O)n(-c2cc(NS(C)(=O)=O)c(C#N)cc2F)c1=O [Compound (A2)]	90	76	not decreased	18	0	40	10	9	0	32	4	
CCS(=O)(=O)N(C(=O)C(C)(C)C)c1cc(-n2c(=O)cc(C(F)(F)F)n(C)c2=O)c(F)cc1C#N [Compound (A3)]	84	60	not decreased	15	0	37	11	6	0	24	1	
CCS(=O)(=O)N(C(=O)c1ccc(OC)cc1)c1cc(-n2c(=O)cc(C(F)(F)F)n(C)c2=O)c(F)cc1Cl [Compound (A4)]	73	57	not decreased	17	0	40	14	9	0	27	5	
CC1(C)OC(c2ccco2)CN1C(=O)C(Cl)Cl (stereo not shown) [Compound (B)]	100	100		100	100	100	100	100	100	100	100	remarkably reduced
CC1(C)CN2C(=O)CCC2(C)N(C(=O)C(Cl)Cl)C1 (stereo not shown) [Compound (C)]	100	100		100	100	100	100	100	100	100	100	remarkably reduced
O=C(C(Cl)Cl)N1CCOC12CCCCC2 [Compound (D)]	100	100		100	100	100	100	100	100	100	100	remarkably reduced
CC1COc2ccccc2N1C(=O)C(Cl)Cl (stereo not shown) [Compound (E)]	100	100		100	100	100	100	100	100	100	100	remarkably reduced
